Assay results published in patent US20260262643A1, “HERBICIDAL BENZOXAZINES” (FMC CORPORATION, priority 2022, published 2026).

Legend:
horseweed = experiment: Test C postemergence; assay type: in vivo, Erigeron canadensis; settings: 10 days
Method in brief: (§1)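 Soil-applied (pre) and foliar (post, 1–2 leaf, 2–10 cm) sprays; surfactant-containing non-phytotoxic solvent vehicle; loam/sand substrate. Readout: visual % control at 10 d, greenhouse, versus untreated.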

kochia [1] = experiment: Test C postemergence; assay type: in vivo, Bassia scoparia; settings: 10 days
Method in brief: as §1

green foxtail [2] = experiment: Test C preemergence; assay type: in vivo, Setaria viridis; settings: Preemergence
Method in brief: as §1

ryegrass, Italian [3] = experiment: Test C preemergence; assay type: in vivo, Lolium multiflorum; settings: Preemergence
Method in brief: as §1

pigweed, palmer [4] = experiment: Test C preemergence; assay type: in vivo, Amaranthus palmeri; settings: Preemergence
Method in brief: as §1

oat, wild [5] = experiment: Test C postemergence; assay type: in vivo, Avena fatua; settings: 500 g ai/ha, postemergence, 10 days, 0 to 100 scale (0 no effect, 100 complete control)
Method in brief: as §1

corn [6] = experiment: Test C preemergence; assay type: in vivo, Zea mays; settings: Preemergence, 125 g ai/ha; 0 to 100 scale, 0 no effect, 100 complete control
Method in brief: as §1

barnyardgrass [7] = experiment: Test D flooded paddy test; assay type: in vivo, Echinochloa crus-galli; settings: 250 g ai/ha, applied to paddy water, visual rating after 13 to 14 days, scale 0 to 100 (0 no effect, 100 complete control)
Method in brief: (§2)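 Visual ratings from 0, meaning no effect, to 100, meaning complete control, were assigned against untreated controls 13 to 14 days after compounds were added to the floodwater of pots kept 3 cm deep, with plants at the 2-leaf stage.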

oat, wild [8] = experiment: Test C preemergence; assay type: in vivo, Avena fatua; settings: Preemergence, 125 g ai/ha; 0 to 100 scale, 0 no effect, 100 complete control
Method in brief: as §1

barnyardgrass [9] = experiment: Test C postemergence; assay type: in vivo, Echinochloa crusgalli
Method in brief: as §1

soybean = experiment: Test C preemergence; assay type: in vivo, Glycine max; settings: Preemergence, 125 g ai/ha; 0 to 100 scale, 0 no effect, 100 complete control
Method in brief: as §1

sedge, umbrella = experiment: Test D flooded paddy test; assay type: in vivo, Cyperus difformis; settings: 250 g ai/ha, applied to paddy water, visual rating after 13 to 14 days, scale 0 to 100 (0 no effect, 100 complete control)
Method in brief: as §2

rice = experiment: Test D flooded paddy test; assay type: in vivo, Oryza sativa; settings: 250 g ai/ha, applied to paddy water, visual rating after 13 to 14 days, scale 0 to 100 (0 no effect, 100 complete control)
Method in brief: as §2

corn [10] = experiment: Test C postemergence; assay type: in vivo, Zea mays; settings: 500 g ai/ha, postemergence, 10 days, 0 to 100 scale (0 no effect, 100 complete control)
Method in brief: as §1

barnyardgrass [11] = experiment: Test C preemergence; assay type: in vivo, Echinochloa crusgalli; settings: Preemergence
Method in brief: as §1

ragweed [12] = experiment: Test C preemergence; assay type: in vivo, Ambrosia artemisiifolia; settings: Preemergence
Method in brief: as §1

wheat = experiment: Test C preemergence; assay type: in vivo, Triticum aestivum; settings: Preemergence, 125 g ai/ha; 0 to 100 scale, 0 no effect, 100 complete control
Method in brief: as §1

blackgrass [13] = experiment: Test C preemergence; assay type: in vivo, Alopecurus myosuroides; settings: Preemergence
Method in brief: as §1

ducksalad = experiment: Test D flooded paddy test; assay type: in vivo, Heteranthera limosa; settings: 250 g ai/ha, applied to paddy water, visual rating after 13 to 14 days, scale 0 to 100 (0 no effect, 100 complete control)
Method in brief: as §2

green foxtail [14] = experiment: Test C postemergence; assay type: in vivo, Setaria viridis; settings: 10 days
Method in brief: as §1

kochia [15] = experiment: Test C preemergence; assay type: in vivo, Bassia scoparia; settings: Preemergence
Method in brief: as §1

pigweed, palmer [16] = experiment: Test C postemergence; assay type: in vivo, Amaranthus palmeri; settings: 10 days
Method in brief: as §1

blackgrass [17] = experiment: Test C postemergence; assay type: in vivo, Alopecurus myosuroides; settings: 10 days
Method in brief: as §1

ragweed [18] = experiment: Test C postemergence; assay type: in vivo, Ambrosia artemisiifolia; settings: Postemergence, 1000 g ai/ha, 10 days, visual 0 to 100 scale (0 no effect, 100 complete control)
Method in brief: as §1

ryegrass, Italian [19] = experiment: Test C postemergence; assay type: in vivo, Lolium multiflorum; settings: Postemergence, 1000 g ai/ha, 10 days, visual 0 to 100 scale (0 no effect, 100 complete control)
Method in brief: as §1

galium = experiment: Test C postemergence; assay type: in vivo, Galium aparine; settings: Postemergence, 1000 g ai/ha, 10 days, visual 0 to 100 scale (0 no effect, 100 complete control)
Method in brief: as §1

[20] = 500 g ai/ha, postemergence, 0 to 100 scale (0 no effect, 100 complete control)
[21] = 125 g ai/ha, 0 to 100 scale, 0 no effect, 100 complete control
[22] = Postemergence, 1000 g ai/ha, visual 0 to 100 scale (0 no effect, 100 complete control)
[23] = 1000 g ai/ha, visual rating after 10 days, 0 to 100 scale (0 no effect, 100 complete control)

| SMILES | Plant response rating, Barnyardgrass (Flood) (barnyardgrass [7]) | Plant response rating, Sedge, Umbrella (Flood) (sedge, umbrella) | Plant response rating, Rice (Flood) (rice) | Plant response rating, Ducksalad (Flood) (ducksalad) | Plant response rating, Horseweed (horseweed; [22]) | Plant response rating, Kochia (kochia [1]; [22]) | Plant response rating, Foxtail, Green (green foxtail [2]; [23]) | Plant response rating, Ryegrass, Italian (ryegrass, Italian [3]; [23]) | Plant response rating, Pigweed, Palmer (pigweed, palmer [4]; [23]) | Plant response rating, Ragweed (ragweed [18]) | Plant response rating, Ryegrass, Italian (ryegrass, Italian [19]) | Plant response rating, Galium (galium) | Plant response rating, Barnyardgrass (barnyardgrass [11]; [23]) | Plant response rating, Ragweed (ragweed [12]; [23]) | Plant response rating, Blackgrass (blackgrass [13]; [23]) | Plant response rating, Foxtail, Green (green foxtail [14]; [22]) | Plant response rating, Kochia (kochia [15]; [23]) | Plant response rating, Pigweed, Palmer (pigweed, palmer [16]; [22]) | Plant response rating, Blackgrass (blackgrass [17]; [22]) | further results |
| --- | --- | --- | --- | --- | --- | --- | --- | --- | --- | --- | --- | --- | --- | --- | --- | --- | --- | --- | --- | --- |
| CCOC[C@H]1CN(C(=O)c2cc(-n3cnc(C(C)C)n3)cc3c2OCO3)c2cccc(Cl)c2O1 [Compound 400] | 15 | 40 | 0 | 45 |  |  |  |  |  |  |  |  |  |  |  |  |  |  |  | Plant response rating, Horseweed (horseweed; [20]): 20; Plant response rating, Kochia (kochia [1]; [20]): 90; Plant response rating, Foxtail, Green (green foxtail [2]; [21]): 70; Plant response rating, Ryegrass, Italian (ryegrass, Italian [3]; [21]): 60; Plant response rating, Pigweed, Palmer (pigweed, palmer [4]; [21]): 100; Plant response rating, Oat, Wild (oat, wild [5]): 20; Plant response rating, Corn (corn [6]): 0; Plant response rating, Oat, Wild (oat, wild [8]): 0; Plant response rating, Barnyardgrass (barnyardgrass [9]; 500 g ai/ha, postemergence, 10 days, 0 to 100 scale (0 no effect, 100 complete control)): 50; Plant response rating, Soybean (soybean): 20; Plant response rating, Corn (corn [10]): 50; Plant response rating, Barnyardgrass (barnyardgrass [11]; [21]): 50; Plant response rating, Ragweed (ragweed [12]; [21]): 30; Plant response rating, Wheat (wheat): 0; Plant response rating, Blackgrass (blackgrass [13]; [21]): 0; Plant response rating, Foxtail, Green (green foxtail [14]; [20]): 40; Plant response rating, Kochia (kochia [15]; [21]): 50; Plant response rating, Pigweed, Palmer (pigweed, palmer [16]; [20]): 100; Plant response rating, Blackgrass (blackgrass [17]; [20]): 70 |
| Cc1ncc(-c2cccc(C(=O)N3C[C@H](C)Oc4c(Cl)cccc43)c2)s1 [Compound 296] | 0 | 0 | 0 | 0 | 60 | 90 | 100 | 80 | 100 | 80 | 30 | 100 | 100 | 70 | 50 | 80 | 90 | 90 | 80 | Plant response rating, Barnyardgrass (barnyardgrass [9]; Postemergence, 1000 g ai/ha, 10 days, visual 0 to 100 scale (0 no effect, 100 complete control)): 50 |
| Cc1nccc(-c2cccc(C(=O)N3C[C@H](C)Oc4c(C)cccc43)c2)n1 [Compound 250] | 0 | 0 | 0 | 0 | 0 | 70 | 100 | 90 | 80 | 50 | 40 | 50 | 90 | 0 | 30 | 80 | 80 | 50 | 20 | Plant response rating, Barnyardgrass (barnyardgrass [9]; Postemergence, 1000 g ai/ha, 0 to 100 scale, 0 no effect, 100 complete control): 50 |
